Measured values from patent publication US11040087B2, “Therapeutic agent for diseases associated with abnormalities in dystroglycan sugar chain modification and method for assaying associated enzyme” (NATIONAL UNIVERSITY CORPORATION KOBE UNIVERSITY, priority 2016, dated 2021).

Experiments:
[1] = test system: ISPD-deficient HAP1 cells; details: ISPD-deficient (KO) HAP1 cells; CDP-ribitol added to culture medium at final concentration 1 mM; culture 24 hours; western blot
Description: (§1) In this Example, for HAP1 cells and HEK cells, cells deficient in ISPD were generated using a CRISPR/CAS9 genome editing method. The HAP1 cells are a haploid cell line derived from cultured human leukemia cells (KBM7), and are cells capable of being subjected to genome editing with high efficiency.
(§2) The deficiency mutation of the ISPD-deficient cells was confirmed by DNA sequencing. To each culture medium, CDP-ribitol was added at a final concentration of 1 mM, followed by culture for 24 hours. After the culture, cell endogenous dystroglycan was prepared from a cell extract, and the state of glycosylation was confirmed by a western blot method.

[2] = test system: ISPD-deficient HEK cells; details: ISPD-deficient (KO) HEK cells; CDP-ribitol 1 mM administered simultaneously with cell transfection reagent (lipofectamine); culture 24 hours; western blot
Description: as §1, §2

Substance: cytidine diphosphate ribitol [CDP-ribitol]
- state of glycosylation of cell endogenous dystroglycan (α-DG) [1]: caused glycosylation of α-DG similar to that in the normal cells
- state of glycosylation of cell endogenous dystroglycan (α-DG) [2]: the restoration of the glycan was confirmed
